Experimental data published in US5126336A, “Antibiotic C-3 catechol-substituted cephalosporin compounds, compositions and method of use thereof” (Bristol-Myers Squibb Company, priority 1990, dated 1992).
≈ marks a conversion by molar mass, not a printed value.

Key:
Format in all cases: cell-based
[1] = tested on: Gp-Ia: Penicillin(PC)-sensitive S. aureus (5 strains); assay: MIC, two-fold serial agar dilution, Gp-Ia; conditions: Staphylococcus aureus, Mueller-Hinton agar, read-out: Geometric mean of MIC
Protocol: (§1) Minimum inhibitory concentrations (MICs) of the present series of cephalosporins were determined against 32 strains of test organisms by two-fold serial agar dilution method in Mueller-Hinton agar. Geometric means of MICs were calculated against six groups of the test organisms which are classified as follows and summarized in Table 1.
Gp-Ia Penicillin(PC)-sensitive S. aureus (5 strains).

[2] = tested on: Gp-Ib: Penicillin(PC)-resistant S. aureus (5); assay: MIC, two-fold serial agar dilution, Gp-Ib; conditions: Staphylococcus aureus, 5 strains, Mueller-Hinton agar, read-out: Geometric mean of MIC
Protocol: as §1
Gp-Ib Penicillin(PC)-resistant S. aureus (5).

[3] = tested on: Gn-Ia: Cephalothin(CET)-sensitive E. coli (2), Kl. pneumoniae (1) and Pr. mirabilis (2); assay: MIC, two-fold serial agar dilution, Gn-Ia; conditions: 5 strains, Mueller-Hinton agar, read-out: Geometric mean of MIC
Protocol: as §1
Gn-Ia Cephalothin(CET)-sensitive E. coli (2), Kl.
pneumoniae (1) and Pr. mirabilis (2).

[4] = tested on: Gn-Ib: Cephalothin(CET)-resistant E. coli (3) and Kl. pneumoniae (2); assay: MIC, two-fold serial agar dilution, Gn-Ib; conditions: Escherichia coli, read-out: Geometric mean of MIC, Gn-Ib, 5 strains; Mueller-Hinton agar
Protocol: as §1
Gn-Ib Cephalothin(CET)-resistant E. coli (3) and Kl.

[5] = tested on: Gn-II: M.morganii (1), Ent. cloacae (2) and Ser. marcescens (2); assay: MIC, two-fold serial agar dilution, Gn-II; conditions: Gn-II, 5 strains; Mueller-Hinton agar; read-out: Geometric mean of MIC
Protocol: as §1
Gn-II M.morganii (1), Ent. cloacae (2) and Ser.

[6] = tested on: Gn-III: Ps. aeruginosa (7); assay: MIC, two-fold serial agar dilution, Gn-III; conditions: Pseudomonas aeruginosa, Gn-III, 7 strains; Mueller-Hinton agar; read-out: Geometric mean of MIC
Protocol: as §1
Gn-III Ps. aeruginosa (7).

B. subtilis PCI 219 = assay: MIC, agar dilution; conditions: Bacillus subtilis, PCI219, Mueller-Hinton agar pH 7.2, 32° C., 18 hr, 10^6 cells/ml
Protocol: as §1
(§2) Medium; MuellerHinton agar (pH = 7.2)
(§3) Incubation temperature: 32° C., 18 hr
(§4) Inoculum size; 10^6 cells/ml

C. freundii GN 7391 = assay: MIC, agar dilution; conditions: Citrobacter freundii, GN7391, Mueller-Hinton agar pH 7.2, 32° C., 18 hr, 10^6 cells/ml
Protocol: as §1, §2, §3, §4

C. terrigena IFO 12685 = assay: MIC, agar dilution; conditions: Mueller-Hinton agar pH 7.2, 32° C., 18 hr, 10^6 cells/ml
Protocol: as §1, §2, §3, §4

E. cloacae IPM-12 = assay: MIC, agar dilution; conditions: Enterobacter cloacae, IPM12, Mueller-Hinton agar pH 7.2, 32° C., 18 hr, 10^6 cells/ml
Protocol: as §1, §2, §3, §4

E. coli 255 = assay: MIC, agar dilution; conditions: Escherichia coli, Mueller-Hinton agar pH 7.2, 32° C., 18 hr, 10^6 cells/ml
Protocol: as §1, §2, §3, §4

E. faecalis A9808 = assay: MIC, agar dilution; conditions: Enterococcus faecalis, Mueller-Hinton agar pH 7.2, 32° C., 18 hr, 10^6 cells/ml
Protocol: as §1, §2, §3, §4

E. faecium A24817 = assay: MIC, agar dilution; conditions: Enterococcus faecium, Mueller-Hinton agar pH 7.2, 32° C., 18 hr, 10^6 cells/ml
Protocol: as §1, §2, §3, §4

K. pneumoniae PCI 602 = assay: MIC, agar dilution; conditions: Klebsiella pneumoniae, PCI602, Mueller-Hinton agar pH 7.2, 32° C., 18 hr, 10^6 cells/ml
Protocol: as §1, §2, §3, §4

M. luteus 1001 = assay: MIC, agar dilution; conditions: Micrococcus luteus, Mueller-Hinton agar pH 7.2, 32° C., 18 hr, 10^6 cells/ml
Protocol: as §1, §2, §3, §4

M. morgani 1510/9 = assay: MIC, agar dilution; conditions: Mueller-Hinton agar pH 7.2, 32° C., 18 hr, 10^6 cells/ml
Protocol: as §1, §2, §3, §4

M. morgani 1510 = assay: MIC, agar dilution; conditions: Mueller-Hinton agar pH 7.2, 32° C., 18 hr, 10^6 cells/ml
Protocol: as §1, §2, §3, §4

P. aeruginosa A20599 = assay: MIC, agar dilution; conditions: Pseudomonas aeruginosa, Mueller-Hinton agar pH 7.2, 32° C., 18 hr, 10^6 cells/ml
Protocol: as §1, §2, §3, §4

P. aeruginosa IPM-8 = assay: MIC, agar dilution; conditions: Pseudomonas aeruginosa, IPM8, Mueller-Hinton agar pH 7.2, 32° C., 18 hr, 10^6 cells/ml
Protocol: as §1, §2, §3, §4

P. aeruginosa IPM-9 = assay: MIC, agar dilution; conditions: Pseudomonas aeruginosa, IPM9, Mueller-Hinton agar pH 7.2, 32° C., 18 hr, 10^6 cells/ml
Protocol: as §1, §2, §3, §4

P. aeruginosa KKA 19 = assay: MIC, agar dilution; conditions: Pseudomonas aeruginosa, KKA19, Mueller-Hinton agar pH 7.2, 32° C., 18 hr, 10^6 cells/ml
Protocol: as §1, §2, §3, §4

P. cepacia A21213 = assay: MIC, agar dilution; conditions: Burkholderia cepacia, Mueller-Hinton agar pH 7.2, 32° C., 18 hr, 10^6 cells/ml
Protocol: as §1, §2, §3, §4

P. cepacia No. 651 = assay: MIC, agar dilution; conditions: Burkholderia cepacia, Mueller-Hinton agar pH 7.2, 32° C., 18 hr, 10^6 cells/ml
Protocol: as §1, §2, §3, §4

P. mirabilis IFO-2849 = assay: MIC, agar dilution; conditions: Proteus mirabilis, IFO2849, Mueller-Hinton agar pH 7.2, 32° C., 18 hr, 10^6 cells/ml
Protocol: as §1, §2, §3, §4

P. rettgeri IPM-14 = assay: MIC, agar dilution; conditions: Providencia rettgeri, IPM14, Mueller-Hinton agar pH 7.2, 32° C., 18 hr, 10^6 cells/ml
Protocol: as §1, §2, §3, §4

P. vulgaris IPM-13 = assay: MIC, agar dilution; conditions: Proteus vulgaris, IPM13, Mueller-Hinton agar pH 7.2, 32° C., 18 hr, 10^6 cells/ml
Protocol: as §1, §2, §3, §4

S. aureus 209P = assay: MIC, agar dilution; conditions: Staphylococcus aureus; S. aureus 209P; Mueller-Hinton agar pH 7.2; 32° C., 18 hr; 10^6 cells/ml; read-out: MIC
Protocol: as §1, §2, §3, §4

S. aureus 4-1015 (MRSA) = assay: MIC, agar dilution; conditions: Staphylococcus aureus, Mueller-Hinton agar pH 7.2, 32° C., 18 hr, 10^6 cells/ml
Protocol: as §1, §2, §3, §4

S. aureus IPM-24 (MRSA) = assay: MIC, agar dilution; conditions: Staphylococcus aureus, Mueller-Hinton agar pH 7.2, 32° C., 18 hr, 10^6 cells/ml
Protocol: as §1, §2, §3, §4

S. epidermidis 11-1230 = assay: MIC, agar dilution; conditions: Staphylococcus epidermidis, 111230, Mueller-Hinton agar pH 7.2, 32° C., 18 hr, 10^6 cells/ml
Protocol: as §1, §2, §3, §4

S. marcescens IPM-15 = assay: MIC, agar dilution; conditions: Serratia marcescens, IPM15, Mueller-Hinton agar pH 7.2, 32° C., 18 hr, 10^6 cells/ml
Protocol: as §1, §2, §3, §4

S. marcescens IPM-16 = assay: MIC, agar dilution; conditions: Serratia marcescens, IPM16, Mueller-Hinton agar pH 7.2, 32° C., 18 hr, 10^6 cells/ml
Protocol: as §1, §2, §3, §4

X. maltophilia GN 12873 = assay: MIC, agar dilution; conditions: Stenotrophomonas maltophilia, GN12873, Mueller-Hinton agar pH 7.2, 32° C., 18 hr, 10^6 cells/ml
Protocol: as §1, §2, §3, §4

X. maltophilia No. 661 = assay: MIC, agar dilution; conditions: Stenotrophomonas maltophilia, Mueller-Hinton agar pH 7.2, 32° C., 18 hr, 10^6 cells/ml
Protocol: as §1, §2, §3, §4

E. coli Juhl A15119 = assay: MIC, agar dilution; conditions: Escherichia coli, JUHLA15119; E. coli Juhl A15119; Mueller-Hinton agar pH 7.2; 32° C., 18 hr; 10^6 cells/ml; read-out: MIC
Protocol: as §1
(§5) In vivo antibacterial activity was determined against three bacterial infections (S. aureus Smith, E. coli Juhl and P. aeruginosa A9843A) by intramuscular administration to mice just after the bacterial challenge. PD50 values are summarized in Table 3 in comparsion with the MIC values against the corresponding organisms.
as §2, §3, §4

P. aeruginosa A9843A = assay: MIC, agar dilution; conditions: Pseudomonas aeruginosa, A9843A, 18 h, pH 7.2
Protocol: as §1, §5, §2, §3, §4

S. aureus Smith = assay: MIC, agar dilution; conditions: Staphylococcus aureus, 18 h, pH 7.2
Protocol: as §1, §5, §2, §3, §4

Structure (SMILES): CC(C)(O/N=C(\C(=O)NC1C(=O)N2C(C(=O)[O-])=C(/C=C/C[N+](C)(C)CCc3ccc(O)c(O)c3)CS[C@H]12)c1csc(N)n1)C(=O)O (stereo partly shown) [Iq, 7-[(Z)-2-(2-Aminothiazol-4-yl)-2-(1-carboxy-1-methylethoxy-imino)acetamido]-3-[(E)-3-(3,4-dihydroxyphenethyldimethyl-ammonio)-1-propen-1-yl]-3-cephem-4-carboxylate]
- MIC [1]: 13 µg/mL (≈ 19.3 µM)
- MIC [2]: 25 µg/mL (≈ 37.1 µM)
- MIC [3]: 0.17 µg/mL (≈ 0.252 µM)
- MIC [4]: 0.13 µg/mL (≈ 0.193 µM)
- MIC [5]: 0.8 µg/mL (≈ 1.19 µM)
- MIC [6]: 0.59 µg/mL (≈ 0.874 µM)

Structure (SMILES): C[n+]1cn(C/C=C/C2=C(C(=O)[O-])N3C(=O)C(NC(=O)/C(=N\OC(C)(C)C(=O)O)c4csc(N)n4)C3SC2)c2cc(O)c(O)cc21 (stereo not shown) [Ip, 7-[(Z)-2-(2-Aminothiazol-4-yl)-2-(1-methyl-1-carboxyethoxy-imino)acetamido]-3-[(E)-3-(5,6-dihydroxy-3-methylbenzimi-dazol-3-io-1-yl)-1-propen-1-yl]-3-cephem-4-carboxylate]
- MIC (B. subtilis PCI 219): 12.5 µg/mL (≈ 19 µM)
- MIC (C. freundii GN 7391): 12.5 µg/mL (≈ 19 µM)
- MIC (C. terrigena IFO 12685): 1.6 µg/mL (≈ 2.43 µM)
- MIC (E. cloacae IPM-12): 3.1 µg/mL (≈ 4.71 µM)
- MIC (E. coli 255): 0.05 µg/mL (≈ 0.076 µM)
- MIC (E. faecalis A9808): > 100 µg/mL
- MIC (E. faecium A24817): > 100 µg/mL
- MIC (K. pneumoniae PCI 602): 0.013 µg/mL (≈ 0.0198 µM)
- MIC (M. luteus 1001): 3.1 µg/mL (≈ 4.71 µM)
- MIC (M. morgani 1510/9): 0.1 µg/mL (≈ 0.152 µM)
- MIC (M. morgani 1510): 1.6 µg/mL (≈ 2.43 µM)
- MIC (P. aeruginosa A20599): 0.2 µg/mL (≈ 0.304 µM)
- MIC (P. aeruginosa IPM-8): 0.1 µg/mL (≈ 0.152 µM)
- MIC (P. aeruginosa IPM-9): 12.5 µg/mL (≈ 19 µM)
- MIC (P. aeruginosa KKA 19): 0.2 µg/mL (≈ 0.304 µM)
- MIC (P. cepacia A21213): 1.6 µg/mL (≈ 2.43 µM)
- MIC (P. cepacia No. 651): 3.1 µg/mL (≈ 4.71 µM)
- MIC (P. mirabilis IFO-2849): 0.05 µg/mL (≈ 0.076 µM)
- MIC (P. rettgeri IPM-14): 0.2 µg/mL (≈ 0.304 µM)
- MIC (P. vulgaris IPM-13): 12.5 µg/mL (≈ 19 µM)
- MIC (S. aureus 209P): 25 µg/mL (≈ 38 µM)
- MIC (S. aureus 4-1015 (MRSA)): > 100 µg/mL
- MIC (S. aureus IPM-24 (MRSA)): > 100 µg/mL
- MIC (S. epidermidis 11-1230): 25 µg/mL (≈ 38 µM)
- MIC (S. marcescens IPM-15): > 100 µg/mL
- MIC (S. marcescens IPM-16): 3.1 µg/mL (≈ 4.71 µM)
- MIC (X. maltophilia GN 12873): 1.6 µg/mL (≈ 2.43 µM)
- MIC (X. maltophilia No. 661): 0.8 µg/mL (≈ 1.22 µM)
- MIC (E. coli Juhl A15119): 0.2 µg/mL (≈ 0.304 µM)
- MIC (P. aeruginosa A9843A): 0.1 µg/mL (≈ 0.152 µM)
- MIC (S. aureus Smith): 100 µg/mL (≈ 152 µM)
